In patent US20160368873A1, “Optically Active Form of Mepenzolate, and Ameliorating Agent for Chronic Obstructive Pulmonary Disease Which Contains Same as Active Ingredient” (LTT BIO-PHARMA CO., LTD., priority 2014, published 2016):

Columns and labels:
ICR mice [1] = test: Effect on porcine pancreatic elastase (PPE)-induced inflammation (1) (Test Example 4.1); assay type: in vivo; details: 38 μg/kg via the airway once, PPE 100 μg per mouse 1 h later, BALF 24 h after PPE, FIG. 8
Protocol: Then, broncho alveolar lavage fluid (BALF) was collected from the lung 24 hours after administration of porcine pancreatic elastase and a total cell count and a neutrophil count were measured.

ICR mice [2] = test: Effect on porcine pancreatic elastase (PPE)-induced inflammation (2) (Test Example 4.2); assay type: in vivo; details: 7.5 μg/kg and 38 μg/kg via the airway once, PPE 20 U/kg 1 h later, BALF 6 h after PPE; for Total cell count in BALF: FIG. 9; for Neutrophil count in BALF: FIG. 10
Protocol: Then, broncho alveolar lavage fluid (BALF) was collected from the lung 6 hours after administration of porcine pancreatic elastase. The BALF was collected by washing the lung twice with saline containing heparin (50 U/mL) with the aid of a tracheostomy tube.
A total cell count of the collected BALF was measured by hemocytometer. The cells were centrifuged by using Cytospin 4 (registered trademark, manufactured by Thermo Electron Corporation) and then fixed with Diff-Quik reagent, and the neutrophil count was determined on the basis of the ratio of the neutrophil count to the total cell count.

ICR mice [3] = test: Effect on PPE-induced inflammation (3), cytokine and chemokines in BALF by ELISA (Test Example 4.3); assay type: in vivo; details: 38 μg/kg via the airway, PPE 20 U/kg, FIGS. 11 to 14
Protocol: The levels of cytokine and chemokine in broncho alveolar lavage fluid (BALF) were measured as indications of an effect on PPE-induced inflammation.
Specifically, TNF-α ([…]), which is a pro-inflammatory cytokine, was measured as a cytokine that is an inflammatory factor and a macrophage inflammatory protein (MIP-2), a monocyte chemotactic protein (MCP-1), and a keratinocyte-derived chemokine (KC) were measured as an inflammatory chemokine.
The measurement of such a cytokine and chemokines in the BALF was performed by ELISA.

[4] = biological target: T1, human M3 muscarinic receptor (Homo sapiens, UniProt P20309); test: Receptor binding ability (in vitro) (1), [3H]NMS competitive inhibition (Test Example 2.1); details: CHO-K1 membrane fraction, 2.0 nM [3H]NMS
T1 construct: expressed in transfected cells; host or cells: CHO-K1 cells (membrane fraction)
T1 sequence (P20309 whole entry): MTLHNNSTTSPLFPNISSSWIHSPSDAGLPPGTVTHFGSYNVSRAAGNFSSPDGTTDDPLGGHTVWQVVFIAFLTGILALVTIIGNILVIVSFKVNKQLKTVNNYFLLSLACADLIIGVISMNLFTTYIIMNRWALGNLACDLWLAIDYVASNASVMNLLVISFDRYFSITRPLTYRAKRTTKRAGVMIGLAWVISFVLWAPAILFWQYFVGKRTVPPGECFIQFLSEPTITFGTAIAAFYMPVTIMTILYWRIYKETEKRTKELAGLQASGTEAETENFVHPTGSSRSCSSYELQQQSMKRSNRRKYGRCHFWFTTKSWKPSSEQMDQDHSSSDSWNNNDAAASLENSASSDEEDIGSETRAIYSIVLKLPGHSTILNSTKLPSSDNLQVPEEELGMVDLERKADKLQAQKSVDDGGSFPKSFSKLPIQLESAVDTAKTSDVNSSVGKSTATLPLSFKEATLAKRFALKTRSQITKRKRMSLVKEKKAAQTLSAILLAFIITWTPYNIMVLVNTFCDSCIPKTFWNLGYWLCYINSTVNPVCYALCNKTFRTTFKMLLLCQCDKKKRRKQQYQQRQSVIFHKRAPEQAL
Protocol: Nonspecific binding was measured in the presence of 1 μM atropine.
The resulting filter, which was dried and a solid scintillator, MeltiLex A (manufactured by PerkinElmer, Inc.) was melted thereon, was measured and quantified by using a β-counter (MicroBeta microplate scintillation counter (Trilux: manufactured by PerkinElmer, Inc.).

ICR mice [5] = test: Effect on methacholine-induced airway constriction (1) (Test Example 3.1); assay type: in vivo; details: 3.75 μg/kg via the airway, 1 h before nebulized methacholine, FIG. 5
Protocol: (§1) Increase in airway resistance induced by methacoline was measured.
4 to 6 week old ICR mice received 1 mg/mL methacoline by nebulization over 20 seconds and this was repeated five times. After each administration of methacoline was completed, the airway resistance was measured by a snap shot technique. All the data were analyzed by using FlexiVent software.
(§2) One hour after administration, the mice received five exposures to nebulized methacoline by the above-mentioned method and the airway resistance at the time of each administration was measured.

[6] = Concentration in lung tissue after airway administration (Test Example 1); assay type: in vivo; details: ICR mice, airway administration 20 mg/kg, chiral HPLC
Protocol: The test samples were divided into 300 μL aliquots and subjected to ultrafiltration using an Amicon ultra-0.5 centrifugal filter.
The HPLC conditions were as follows.
Detector: Waters 2695 Alliance separation module and Waters 2996 photodiode array detector (manufactured by Waters Corporation)
Eluent: Solvent A (Water containing 0.1 M hexafluorophosphate)/Solvent B (acetonitrile)
Mobile Phase: 70% Solvent A/30% Solvent B
Measuring wavelength: 220 nm

ICR mice [7] = test: Effect on methacholine-induced airway constriction (2) (Test Example 3.2); assay type: in vivo; details: 3.8 μg/kg via the airway, 1 h before nebulized methacholine, FIG. 7
Protocol: as §1
4 to 6 week old ICR mice were anesthetized with chloral hydrate (500 mg/kg), a tracheostomy was performed, and a metal tube […] in diameter was inserted into the trachea.
The mice were mechanically ventilated at 150 respirations/minute with a displacement per one cycle of 8.7 mL/kg and a positive end-expiratory pressure of 2 to 3 cmH2O.
The mice were exposed to nebulized methacholine (5 mg/kg) for 20 seconds four times at intervals of 40 seconds to induce airway resistance by methacholine, and the airway resistance was measured by a snap shot technique.
as §2
The data were analyzed by using FlexiVent software.

ICR mice [8] = test: Fecal pellet output (level of constipation occurrence) after application of stress (Test Example 5); assay type: in vivo; details: 4.7 mg/kg intratracheally, 1 h later one-hour restraint stress, FIG. 15
Protocol: 4 to 6 week old ICR mice were put under stress by placing the mice in a 50 mL tube for one hour, the tube ensuring free breathing but restraining free movement, and the fecal pellet output (the level of constipation occurrence) at that time was measured.
The level of constipation occurrence was monitored by measuring the fecal pellet output during the above-mentioned period.

[9] = biological target: T2, human M3 muscarinic receptor (hM3R) (Homo sapiens, UniProt P20309); test: Receptor binding ability (in vitro) (2), [3H]NMS competitive inhibition, hM3R (Test Example 2.2); details: Table 2 and FIG. 3, compared to (R)-mepenzolate bromide and the racemate
T2 construct: expressed in transfected cells; host or cells: CHO-K1 cells (membrane fraction)
T2 sequence (P20309 whole entry): as above
Protocol: Membrane fractions of CHO—K1 cells overexpressing a human M3 muscarinic receptor (hM3R) or CHO—K1 cells overexpressing a human M2 muscarinic receptor (hM2R) were used to measure receptor binding ability by competitive inhibition assay with 1-[N-methyl-^3H]scopolamine methyl bromide ([^3H]NMS, specific activity: 85.5 Cimmol). The protein concentration of the cell membrane was 10.0 μg/well and the [^3H]NMS concentration was 2.0 nM.
A binding buffer (phosphate buffer/saline) was added to the reagents to make a total volume of 200 μL. […]
The resulting filter was dried for 30 minutes, and then, fixed to a solid scintillator, MeltiLex A (melt-on scintillation sheet; manufactured by PerkinElmer, Inc.). The radioactivity remaining on the filter was measured in a MicroBeta Trilux microplate scintillation counter (manufactured by PerkinElmer, Inc.).
An experimental IC50 was calculated by using an experimentally obtained constant (κd) of [^3H]NMS for hM3R or hM2R and the concentration thereof, and then, the affinity at equilibrium was determined as a competitive equilibrium dissociation constant (κi) value. In this regard, the κi value was calculated from three individual curves and modified by using Prism (produced by GraphPad Software, Inc.).

| SMILES | Neutrophil count in BALF (ICR mice [1]) | Total cell count in BALF (ICR mice [1]) | Total cell count in BALF (ICR mice [2]) | Neutrophil count in BALF (ICR mice [2]) | Inflammatory factors in BALF (TNF-α, MIP-2, MCP-1, KC) (ICR mice [3]) | Binding to the M3 receptor (FIG. 1), in words [4] | Effect of suppressing airway resistance (methacholine-induced) (ICR mice [5]) | Concentration in lung tissue, (R)-Mep, 5 min. ([6]; 5 min after administration, (R)-Mep detected) [μg/lung] | Concentration in lung tissue, (R)-Mep, 15 min. ([6]; 15 min after administration, (R)-Mep detected) [μg/lung] | Concentration in lung tissue, (R)-Mep, 30 min. ([6]; 30 min after administration, (R)-Mep detected) [μg/lung] | Effect of suppressing airway resistance (methacholine-induced), low dose (ICR mice [7]) | Level of constipation occurrence (fecal pellet output) (ICR mice [8]) | Concentration in lung tissue, (S)-Mep, 5 min. ([6]; 5 min after administration, (S)-Mep detected) [μg/lung] | Concentration in lung tissue, (S)-Mep, 15 min. ([6]; 15 min after administration, (S)-Mep detected) [μg/lung] | Concentration in lung tissue, (S)-Mep, 30 min. ([6]; 30 min after administration, (S)-Mep detected) [μg/lung] | Affinity to hM3R (M3 receptor), in words [9] |
| --- | --- | --- | --- | --- | --- | --- | --- | --- | --- | --- | --- | --- | --- | --- | --- | --- |
| C[N+]1(C)CCC[C@@H](OC(=O)C(O)(c2ccccc2)c2ccccc2)C1.[Br-] (racemic) [racemate, mepenzolate bromide, reference compound] | similarly effective | similarly effective | effect of decreasing | effect of decreasing | decreased inflammatory factors effectively | bound strongly to the M3 receptor |  |  |  |  |  |  |  |  |  |  |
| C[N+]1(C)CCC[C@@H](OC(=O)C(O)(c2ccccc2)c2ccccc2)C1.[Br-] [R-form, (3R)-3-[(hydroxy) (diphenyl)acetoxy]-1,1-dimethylpiperidinium bromide] | relatively stronger effect of decreasing | relatively stronger effect of decreasing | effect of decreasing | effect of decreasing | decreased inflammatory factors effectively | bound strongly to the M3 receptor | significant effect of suppressing airway resistance | 44.5 ± 11.5 | 6.3 ± 4.2 | 5.1 ± 1.3 | significant effect of suppressing airway resistance | highest level of constipation occurrence |  |  |  |  |
| C[N+]1(C)CCC[C@H](OC(=O)C(O)(c2ccccc2)c2ccccc2)C1.[Br-] [S-form, (3S)-3-[(hydroxy) (diphenyl)acetoxy]-1,1-dimethylpiperidinium bromide] | similarly effective | similarly effective | effect of decreasing | effect of decreasing | decreased inflammatory factors effectively | weaker binding ability | little effect |  |  |  | little effect | low level of constipation occurrence | 36.4 ± 9.5 | 7.6 ± 0.5 | 6.2 ± 0.4 | lower affinity |
